Measured values: patent US20120076762A1, “INDUCED PLURIPOTENT STEM CELL GENERATION USING TWO FACTORS AND P53 INACTIVATION” (THE SALK INSTITUTE FOR BIOLOGICAL STUDIES, priority 2009, published 2012)
Marks after values point to notes of the source that are not given here.

Legend:
[1] = tested on: Mouse embryonic fibroblasts (MEFs); experiment: Reprogramming of mouse embryonic fibroblasts to iPS cells (Nanog-positive colonies); format: cell-based; conditions: for Effect on reprogramming / Fold increase in reprogramming / Nanog-positive colony formation vs control: 3-F; for Direction and grade of change in reprogramming efficiency (arrows) / Reprogramming efficiency (Nanog-positive colonies / infected cells) / Fold increase in reprogramming / Nanog-positive colony formation vs control: MEFs
Text: (§1) VSV-G viruses were produced in HEK293T cells. For pMX-based and pMSCV-based retroviruses, vectors were transfected using CaPO4 or lipofectamin, following the manufacturers' directions. One day after transfection, culture medium was changed to new medium. For lentivirus, pBOBI-based^34 or pLVTHM-based^37 vectors were transfected by Lipofectamine™ 2000 (Invitrogen) according to the manufacturer's protocol. Six hours after transfection, the DNA-lipofectamine-complex was removed and the medium was replaced the next day. Two days after transfection, the supernatant containing viruses was collected and filtered through a 0.45 μm filter. Mouse iPS cells were induced as previously described^38,39. Briefly, mouse embryonic fibroblasts (passage 3 to 5) were infected (day 0) with pMX-based retroviruses together with pLVTHM-based lentivirus for shRNAs or pBOBI-based lentivirus for Bcl-2. On day 2, cells were passed onto new gelatin-coated plates. Medium was changed every 2 days. On day 12 to 14, cells were fixed for immunofluorescence study. For the Nutlin3a experiments, cells were treated starting from day 4. Reprogramming of human embryonic fibroblasts (IMR90) was done as previously described^2′^3. Briefly, IMR90 fibroblasts (passage 7 to 9) were infected (day 0) with pMSCV-based retroviruses+pLVTHM-based lentiviruses for p53 shRNA. On day 4 or 5, cells were passed onto feeder MEFs. Medium was changed every day. Around 3 weeks after infection, cells were fixed for immunofluorescence studies. Reprogramming of human primary keratinocytes was carried out essentially as described^6. Cells were co-infected with retroviral supernatants containing 3 or 4 reprogramming factors and p53-DD or GFP at a 1:2 ratio. To assess the reprogramming efficiency, cells were trypsinized 3 days after retroviral infection and 10^4 cells were plated onto 6-cm tissue culture dishes on top of irradiated human foreskin fibroblasts with hES cell medium.
The number of Nanog-positive colonies was calculated after immunostaining at d12-14. The total number of Nanog-positive colonies was divided by the number of infected cells. Error numbers indicate s.d. The term “s.d.” refers in the customary sense to standard deviation. The term “s.e.” refers in the customary sense to standard error. Student's t-tests were performed for statistical analysis. p=0.007 (p53-shRNA vs mock, n=4 in each), p=0.0006 (p53−/− vs WT, n=3 in each), p=0.009 (p21-shRNA vs mock, n=4 in each), p=0.0005 (Arf-shRNA vs mock, n=3 in each), p=0.028 (Arf/Ink4a-shRNA vs mock, n=3 in each), p=0.010 (Ctl(solvent) vs Nutlin-3(10 μM), n=3 in each), p=0.045 (3SA/3SA vs WT, n=3 in each), p=0.022 (Bcl-2 vs mock, n=4 in each), and p=0.012 (c-Myc versus mock, n=4 in each).

[2] = tested on: human primary keratinocytes; experiment: Reprogramming of human primary keratinocytes (AP-positive hES-like colonies); format: cell-based
Text: FIG. 5: Downregulation of p53 activity increases reprogramming efficiency of human somatic cells. (FIG. 5a) Human embryonic fibroblasts were infected with retroviruses encoding Oct4/Sox2/Klf4 (3-F) or Oct4/Sox2/Klf4/c-Myc (4-F) factors in combination with lentiviruses expressing control- or p53-shRNA. Emerging colonies of iPS cells were visualized by immunostaining with anti-Nanog antibody using an ABC method. […] (FIG. 5b) Human primary keratinocytes were co-infected with 4-F and retroviruses expressing GFP or p53-DD. 5×10^4 infected cells were plated on 10-cm dishes and stained for AP activity after 2 weeks. […] Actin was used as a loading control. (FIG. 5c) The bars represent the average number of iPS-like colonies obtained from 10^4 keratinocytes reprogrammed with 3-F or 4-F and retroviruses encoding GFP or p53-DD, in the absence or presence of the p53 agonist Nutlin3a (n=3). iPS-like colonies were scored as having hES-like morphology and positive AP staining. Due to the numerous colonies generated in 4-F p53-DD keratinocytes, quantification was done using 10^4 cells. […]

[3] = tested on: Arf; experiment: Arf level after shRNA in MEFs (Western blot); format: cell-based, mouse; conditions: lentiviral shRNA, day 4
Text: FIG. 2: Modulation of p53 activity alters reprogramming efficiency. (FIG. 2a) Fold change in the number of 3-F induced Nanog-positive colonies by Arf shRNA compared to control shRNA (n=3). Protein levels of Arf, Ink4a and α-Tubulin (loading control) on day 4 after infection are shown. (FIG. 2b) Fold change in the number of 3-F induced Nanog-positive colonies by Arf/Ink4a shRNA compared to control shRNA (n=3). Protein levels of Arf, Ink4a and α-Tubulin (loading control) on day 4 after infection are shown. (FIG. 2c) MEFs isolated from wild type (+/+), Mdmx-3SA heterozygous (3SA/+) and homozygous (3SA/3SA) mice were exposed to 5Gy of gamma-irradiation for 4 hours. p21 mRNA levels were analyzed by QPCR. Results were normalized to untreated WT samples for fold induction. (FIG. 2d) 3-F induced Nanog-positive colonies in wild type (+/+) and homozygous (3SA/3SA) mice (n=3).
Cells were washed once in PBS and lysed in 2×SDS-PAGE sample buffer without 2-mercaptoethanol and glycerol. Lysates were briefly sonicated and cleared by centrifugation. The protein concentration was determined by a BCA Protein Assay Kit (Thermo Scientific). Lysates were then mixed with 2-mercaptoethanol, BPB and glycerol, and boiled. Equal amounts of proteins were subjected to SDS-PAGE. […] Quantitative PCR was performed using SYBR® GREEN PCR Master Mix (Applied Biosystems).

[4] = tested on: p21; experiment: p21 expression after shRNA in MEFs; format: cell-based, mouse; conditions: lentiviral shRNA
Procedure: FIG. 1: Increased generation of iPS cells by blocking p53 and p21. (FIG. 1a) Mouse embryonic fibroblasts (MEFs) were infected by retroviruses encoding 3 transcription factors (Oct4/Sox2/Klf4), 2 factors (Oct4/Sox2), Klf4, c-Myc or GFP. Four days after infection, the protein levels of p53, Arf, and p21 were analyzed by Western Blotting. α-tubulin was used as a loading control. (FIG. 1b) Mouse embryonic fibroblasts (MEFs) were infected by retroviruses encoding three transcription factors (Oct4/Sox2/Klf4) in combination with mock, control shRNA (GFP) and p53 shRNA (#1 and #2). Emerging colonies of iPS cells were visualized by immunostaining with anti-Nanog antibody using an Avidin Biotin Complex (ABC) method. (FIG. 1c) The fold change in the number of Nanog-positive colonies compared to mock (n=4). For all figures in this study, error bars indicate s.d. (FIG. 1d) Effect of Nutlin 3a on the number of Nanog-positive colonies by 3 factors in combination with mock, p53, and p21 shRNA. Cells were treated by Nutlin 3a (0, 3, 10 μM) starting from day 4. […]
Cells were washed once in PBS and lysed in 2×SDS-PAGE sample buffer without 2-mercaptoethanol and glycerol. […] The protein concentration was determined by a BCA Protein Assay Kit (Thermo Scientific). […] Quantitative PCR was performed using SYBR® GREEN PCR Master Mix (Applied Biosystems).

[5] = tested on: human embryonic fibroblasts (HEFs, IMR90); experiment: Reprogramming of human embryonic fibroblasts (Nanog- or Tra1-81-positive colonies); format: cell-based
Text: as §1, with “.” for “VSV-G viruses were produced in HEK293T cells.”
The number of Nanog- or Tral-81-positive colonies was calculated after immunostaining at dl 8-27. No colonies were observed from mock +4-F or 3-F cells in all trials. The total number of colonies was divided by the number of infected cells. Error numbers indicate s.d (n=4).

[6] = 3F (Oct4/Sox2/Klf4), d12-14, error = s.d.

In the case of `COc1ccc(C2=N[C@@H](c3ccc(Cl)cc3)[C@@H](c3ccc(Cl)cc3)N2C(=O)N2CCNC(=O)C2)c(OC(C)C)c1` [Nutlin3a], the “Effect on iPS cell formation” value ([1]; 3-F MEFs with p53 reduced by most effective shRNA, 0, 3, 10 μM from day 4) is reported as “dose-dependent decrease”, the Effect on reprogramming ([1]; p53(+/+) MEFs) is reported as “dramatically reduced reprogramming” and the Effect on reprogramming ([1]; p53-null (−/−) MEFs) is reported as “did not have any effects”. The “Direction and grade of change in reprogramming efficiency (arrows)” value (shortened to “Direction and grade of change”) ([1]; 3F, Nutlin-3 10 μM vs solvent) was “↓↓”, the “Reprogramming efficiency (Nanog-positive colonies / infected cells)” value ([1]; 3F, Nutlin-3 10 μM vs solvent, treated from day 4, error = s.d.) was 0.007 + 0.008% vs 0.114 + 0.054% and the Effect on reprogramming ([2]; 3-F or 4-F p53-DD expressing keratinocytes) was “inability of Nutlin3a to reduce reprogramming”. For the same compound, the “Effect on reprogramming efficiency” value ([2]; human keratinocytes, 3-F or 4-F) was “markedly reduced the reprogramming efficiency”.

With “Arf shRNA: shRNA sequence CACCGGAATCCTGGACCAG, SEQ ID NO: 5” the “Fold increase in reprogramming / Nanog-positive colony formation vs control” value [1] was “approximately 2 fold”, the “Reprogramming efficiency (Nanog-positive colonies / infected cells)” value [1, 6] was 0.163 ± 0.013% vs 0.085 + 0.083% and the “Direction and grade of change” value ([1]; 3F, vs control) was “↑”. For the same compound, the “Reduction of Arf levels” value [3] was 2-4 fold.

In the case of “Arf/Ink4a shRNA: shRNA sequence AATGGCTGGATTGTTTAAA, SEQ ID NO: 6”, the “Reprogramming efficiency (Nanog-positive colonies / infected cells)” value [1, 6] is reported as 0.366 ± 0.144% vs 0.114 + 0.054% and the “Direction and grade of change” value ([1]; 3F, vs control) is reported as “↑↑”.

“p21 shRNA: shRNA sequence TTAGGACTCAACCGTAATA, SEQ ID NO: 4” was tested, and the “Fold increase in reprogramming / Nanog-positive colony formation vs control” value [1] was “approximately 3 fold”, the “Reprogramming efficiency (Nanog-positive colonies / infected cells)” value [1, 6] was 0.359 ± 0.144% vs 0.114 + 0.054% and the “Direction and grade of change” value ([1]; 3F, vs control) was “↑↑↑”. The “Reduction of p21 expression” value [4] was 3-4 fold.

With “p53shRNA: lentiviral shRNA against human p53, sequence GACTCCAGTGGTAATCTAC, SEQ ID NO: 7 (lentiviral vector)” the “Actual number of Nanog-positive colonies” value ([5]; 3-F, Trial 1) was 10 colonies/3 × 10^4 cells (p53shRNA), the “Actual number of Nanog-positive colonies” value ([5]; 3-F, Trial 2) was 2 colonies/1 × 10^4 cells (p53shRNA) and the “Reprogramming efficiency of HEFs” value ([5]; 3-F, average of 2 independent experiments) was 0.027% *. For the same compound, the “Actual number of Nanog-positive colonies” value ([5]; 4-F, Trial 1) was 86 colonies/2 × 10^4 cells (p53shRNA), the “Actual number of Nanog-positive colonies” value ([5]; 4-F, Trial 2) was 13 colonies/2 × 10^4 cells (p53shRNA) and the “Actual number of Nanog-positive colonies” value ([5]; 4-F, Trial 3) was 19 colonies/2 × 10^4 cells (p53shRNA). The “Actual number of Nanog-positive colonies” value ([5]; 4-F, Trial 4) was 4 colonies/2 × 10^4 cells (p53shRNA) and the “Reprogramming efficiency of HEFs” value ([5]; 4-F, ± s.d. (n=4)) was 0.153 ± 0.188%.
